Reference: patent US7101841B2, “Carbohydrate-specific peptides which have a strong affinity and preparations method thereof” (Korea Institute of Science and Technology, priority 2001, dated 2006)
pKd: −log10 of the molar value.

Tests used:
sLeX [1] = assay: Peptide phage library biopanning against sLeX-BSA; type: binding; conditions: after three rounds of biopanning
Protocol: As described above, in order to obtain molecules having strong binding capacity to carbohydrates using repetitive structure of peptide, sialyl Lewis X (sLeX) existing in tumor cells or inflammation response cells was selected as a target, and a peptide binding to the sLeX well was selected by using peptide phage library and biopanning method. Particularly, sLeX-BSA(Oxford Glycoscience) was added into 0.1 M NaHCO3(pH 8.6) buffer solution until the concentration reached to 100 μg/ml. 150 μl of the above solution(sLeX-BSA 0.1 M NaHCO3) was loaded into one well of 96-well plate, and 150 μl of BSA 0.1 M NaHCO3(pH 8.6) was also loaded into the other well. The well plate was shaken to soak completely, and left for overnight at 4° C. The solution in 96-well plate was washed, followed by adding 200 μl of blocking solution(0.1 M ethanol amine, 0.1 M NaHCO3, pH 8.6) into the wells, and then the plate was left for overnight at 4° C. After blocking solution was removed from the 96-well plate, the plate was washed with 200 μl of TBS-T(50 mM Tris-HCl, pH 7.5, 150 mM NaCl, 0.1% [v/v] Tween-20). […]
180 μl of extraction solution was loaded into 3 ml of ER2537 culture solution(OD600=0.2–0.3) and cultured for 4.5 hours at 37° C. while shaking with 250 rpm. […] The amplified phage obtained above was diluted with various concentrations, and the proper concentration was calculated as follows. […]

sLeX [2] = assay: BIAcore measurement of binding capacity of peptides on sLeX-BSA fixed CM5 chip
Protocol: To measure the binding capacity of peptides, BIAcore was used. CM5 made by gold and protruded with CM-dextran layer and carboxylic acid group was used as a chip. BSA (Oxford Glyco Science, USA) binding with sLeX was used as a ligand for fixing.
At first, chip surface was stabilized with 100 mM HEPES buffer solution (pH 8.0), and activated with the mixture of 0.4 M EDC (1-ethyl-3-[3′-dimethylaminopropyl]carbodiimide) and 0.1 M NHS (N-hydroxysuccunimide). And then, sodium acetate buffer(10 mM, pH 4.0) containing 0.05 mg/ml of sLeX-BSA or BSA was injected and fixed onto the surface of CM5 chip until the value of RU reached to 6,000. Chip surface remaining active state was substituted with 1.0 M ethanolamine. Target molecules were bound to CM5 chip, and binding buffer (0.01 M HEPES, […], 3 mM EDTA, 0.005% polysorbate 20, pH 7.4) was flowed on the chip surface for equilibration, and finally, bindng capacity was determined by flowing binding buffer containing peptides according to the concentrations. At that time, peptides were combined with their targets with different speed and slope according to the affinity of peptides and target molecules and the affinity between target molecules was measured from the each result. […]

Substance | binding capacity to sLeX relative to other selected peptides (sLeX [1]) | pKd (sLeX [2]; BIAcore, sLeX-BSA fixed on CM5 chip, read-out: Kp against sLeX) | strength of binding converted into the height of sensorgram (sLeX [2]; peptide flowed at 62.5 μM, sLeX-BSA fixed chip, FIG. 1)
peptide represented by the SEQ. ID NO.1: peptide composed of 12 amino acids selected by phage display for binding to sLeX (AHWIPRYSSPAT; synthetic peptide which have a strong affinity to carbohydrate) | better than that of the other peptides | – | –
AHWIPRYSSPAT [monomer] | – | 1.60 | 16 RU
